# What was measured:
# lung cancer = lung cancer patients; cited from earlier work
# [1] = test system: EGFR Del 19/T790M Ba/F3 cells; assay: MTS cell proliferation and growth assay in EGFR mutant Ba/F3 cells (Del 19/T790M); assay type: cell-based; conditions: Mus musculus, BaF3, 72 hours
# Excerpt: (§1) The EGFR and iERBB2 mutant Ba/F3 cells and the NIH-3T3 cells have been previously characterized (Engelman, J. A. et al. Cancer Res 67, 11924-32 (2007); Yuza, Y. et al. Cancer Biol Ther 6 (2007)). The EGFR C797S and the ERBB2 T798I mutations are introduced using site directed mutagenesis using the Quick Change Site-Directed Mutagenesis kit (Stratagene; La Jolla, Calif.) according to the manufacturer's instructions (Mukohara, T. et al. J Natl Cancer Inst 97, 1185-94 (2005)). The oligonucleotide sequences are available upon request. All constructs are confirmed by DNA sequencing. The constructs are shuttled into the retroviral vector JP1540 using the BD Creator™ System (BD Biosciences). Ba/F3 of NIH-3T3 cells are infected with retrovirus according to standard protocols, as described previously (Engelman, J. A. et al. Proc Natl Acad Sci USA 102, 3788-93 (2005); Zhao, J. J. et al. Cancer Cell 3, 483-95 (2003)). Stable populations are obtained by selection in puromycin (2 μg/ml).
# (§2) Growth and inhibition of growth is assessed by MTS assay. […]
# (§3) Activity of various compounds of the invention was determined in vitro in EGFR mutant Ba/F3 cells according to the procedures set forth in Example 1.
# [2] = test system: EGFR L858R/T790M Ba/F3 cells; assay: MTS cell proliferation and growth assay in EGFR mutant Ba/F3 cells (L858R/T790M); assay type: cell-based; conditions: Mus musculus, BaF3, 72 hours
# Excerpt: as §1, §2, §3
IC50 [1],IC50 [2],SMILES,median time to tumor progression (lung cancer)
,,C#Cc1cccc(Nc2ncnc3cc(OCCOC)c(OCCOC)cc23)c1 [erlotinib],approximately 2 months
,,COc1cc2ncnc(Nc3ccc(F)c(Cl)c3)c2cc1OCCCN1CCOCC1 [gefitinib],approximately 2 months
435 nM,688 nM,"C=CC(=O)Nc1cccc(Oc2nc(Nc3ccc(N4CCN(C)CC4)cc3OC)nc3ccccc23)c1 [IV-1, N-(3-((2-((2-methoxy-4-(4-methylpiperazin-1-yl)phenyl)amino)quinazolin-4-yl)oxy)phenyl)acrylamide]",
864 nM,2160 nM,"C=CC(=O)Nc1cccc(-c2csc3cnc(Nc4ccc(N5CCN(C)CC5)cc4OC)nc23)c1 [VIII-1, N-(3-(2-((2-methoxy-4-(4-methylpiperazin-1-yl)phenyl)amino)thieno[3,2-d]pyrimidin-7-yl)phenyl)acrylamide]",
